Numbered stars: 1 amine (or outer) side, 2 acyl side, 3 side chain; on linkers, the order of the positions; unused ones are H or OH. Bridge positions count the residues as written; N and C are the ends. Square brackets hold non-standard residues; d marks the D form. Peptide text beside a SMILES is read from it. * marks the point of attachment. hPhe(3,5-F2-4-CF3) = N[C@@H](CCc1cc(F)c(C(F)(F)F)c(F)c1)C(=O)O; hPhe(3-Cl-4-CF3) = N[C@@H](CCc1ccc(C(F)(F)F)c(Cl)c1)C(=O)O; NMePhe(4-CF3) = CN[C@@H](Cc1ccc(C(F)(F)F)cc1)C(=O)O; X120 = O=C([C@H](Cc1cc(F)cc(Br)c1)N[*:1])[*:2]; NEtPhe(4-Me) = CCN[C@@H](Cc1ccc(C)cc1)C(=O)O; NMePhe(4-Cl) = CN[C@@H](Cc1ccc(Cl)cc1)C(=O)O; NMePhe(4-Me) = CN[C@@H](Cc1ccc(C)cc1)C(=O)O; NMedβ3hAla = C[C@H](CC(=O)[*:2])N(C)[*:1]; Leu(4,5-dehydro) = C=C(C)C[C@H](N)C(=O)O; Phe(3-Br) = N[C@@H](Cc1cccc(Br)c1)C(=O)O; NMeGly(cPent) = CN[C@H](C(=O)O)C1CCCC1; Phe(3-I) = N[C@@H](Cc1cccc(I)c1)C(=O)O; X26 = CC(C)=CC[C@H](N[*:1])C(=O)[*:2]; NMeY = CN[C@@H](Cc1ccc(O)cc1)C(=O)O; NMeCha = CN[C@@H](CC1CCCCC1)C(=O)O; NMeAoc(2) = CCCCCC[C@H](NC)C(=O)O; NMeD = CN[C@@H](CC(=O)O)C(=O)O; NMeL = CN[C@@H](CC(C)C)C(=O)O; NMeAbu = CC[C@H](NC)C(=O)O; Morpholide = C1CN(*)CCO1; NMeA = CN[C@@H](C)C(=O)O; NMeAib = CNC(C)(C)C(=O)O; Nle = CCCC[C@H](N)C(=O)O; Piperidide = C1CCN(*)CC1; Ac5c = NC1(C(=O)O)CCCC1; Aze = O=C(O)[C@@H]1CCN1; Sar = CNCC(=O)O

In the assay the test system is Human pancreatic cancer cell line AsPC-1 (G12D mutation Kras). The assay is described as follows: AsPC-1 cell growth inhibition (AsPC-1 CGI). In kind it is cell-based. To be noted: read-out: AsPC-1 cell growth inhibition, 50% growth inhibitory concentration (IC50 value); 96 hours, CellTiter-Glo, values classified in ranges.
Method: Test compounds were serially dilated with dimethyl sulfoxide, and 200 nL was then dispensed to a U-bottom 96-well plate using Labcyte Echo. […] The cell suspension was dispensed to a. plate containing a test compound at 100 μL per well and incubated at 37° C. in a 5% carbon dioxide gas incubator. 96 hours later, 80 μL of CellTiter-Glo (Promega) was added to each well and fluorescence was measured.
For the compound `CC[C@H](C)[C@@H]1NC(=O)[C@H](CC(C)C)N(C)C(=O)C[C@@H](C(=O)N2CCOCC2)N(C)C(=O)[C@H](C2CCCC2)N(C)C(=O)C2(CCCC2)NC(=O)[C@@H]2CCCN2C(=O)[C@H](CCc2cc(F)c(C(F)(F)F)c(F)c2)NC(=O)CN(C)C(=O)[C@H](Cc2ccc(C)cc2)N(CC)C(=O)[C@@H]2CCN2C(=O)[C@H](C)N(C)C1=O` [Compound 1368] ([NMeL]I[NMeA][Aze][NEtPhe(4-Me)][Sar][hPhe(3,5-F2-4-CF3)]P[Ac5c][NMeGly(cPent)][NMeD]-Morpholide; lactam N-11), the IC50 is ≤ 0.02 µM.
The same measure for `CCCC[C@@H]1NC(=O)[C@H](Cc2cc(F)cc(Br)c2)NC(=O)CN(C)C(=O)[C@H](Cc2ccc(OC)cc2)N(C)C(=O)[C@@H]2CCN2C(=O)[C@H](C)N(C)C(=O)[C@H]([C@@H](C)CC)NC(=O)[C@H](CC)N(C)C(=O)C[C@@H](C(=O)N2CCCCC2)N(C)C(=O)[C@H](CC(C)C)NC(=O)C(C)(C)N(C)C1=O` [Compound 1372] ([NMeAbu]I[NMeA][Aze][NMeY](Me)[Sar][X120][Nle][NMeAib]L[NMeD]-Piperidide; lactam N-11): > 0.5 µM; for `CC[C@H](C)[C@@H]1NC(=O)[C@H](C)N(C)C(=O)C[C@@H](C)N(C)C(=O)[C@H](CC(C)C)NC(=O)C(C)(C)N(C)C(=O)[C@H](CC(C)C)NC(=O)[C@H](CCc2ccc(C(F)(F)F)c(Cl)c2)NC(=O)CN(C)C(=O)[C@H](Cc2ccc(C)cc2)N(C)C(=O)[C@@H]2CCN2C(=O)CN(C)C1=O` [Compound 1377] (cyclo([Aze][NMePhe(4-Me)][Sar][hPhe(3-Cl-4-CF3)]L[NMeAib]L[NMedβ3hAla][NMeA]I[Sar])): > 0.5 µM; for `CC[C@H](C)[C@@H]1NC(=O)[C@H](CC(C)C)N(C)C(=O)C[C@@H](C)N(C)C(=O)[C@H](CC(C)C)NC(=O)C(C)(C)N(C)C(=O)[C@H](CC(C)C)NC(=O)[C@H](CCc2ccc(C(F)(F)F)c(Cl)c2)NC(=O)CN(C)C(=O)[C@H](Cc2ccc(C)cc2)N(C)C(=O)[C@@H]2CCN2C(=O)CN(C)C1=O` [Compound 1386] (cyclo([Aze][NMePhe(4-Me)][Sar][hPhe(3-Cl-4-CF3)]L[NMeAib]L[NMedβ3hAla][NMeL]I[Sar])): > 0.5 µM.
`CC[C@H](C)[C@@H]1NC(=O)[C@H](C)N(C)C(=O)C[C@@H](C)N(C)C(=O)[C@H](CC(C)C)NC(=O)C(C)(C)N(C)C(=O)[C@H](CC(C)C)NC(=O)[C@H](CCc2ccc(C(F)(F)F)c(Cl)c2)NC(=O)CN(C)C(=O)[C@H](CC2CCCCC2)N(C)C(=O)[C@@H]2CCN2C(=O)CN(C)C1=O` [Compound 1387] (cyclo([Aze][NMeCha][Sar][hPhe(3-Cl-4-CF3)]L[NMeAib]L[NMedβ3hAla][NMeA]I[Sar])): the IC50 is > 0.5 µM.
In the case of `CC[C@H](C)[C@@H]1NC(=O)[C@H](C)N(C)C(=O)C[C@@H](C)N(C)C(=O)[C@H](CC(C)C)NC(=O)C(C)(C)N(C)C(=O)[C@H](CC(C)C)NC(=O)[C@H](CCc2ccc(C(F)(F)F)c(Cl)c2)NC(=O)CN(C)C(=O)[C@H](Cc2ccc(C(F)(F)F)cc2)N(C)C(=O)[C@@H]2CCN2C(=O)CN(C)C1=O` [Compound 1392] (cyclo([Aze][NMePhe(4-CF3)][Sar][hPhe(3-Cl-4-CF3)]L[NMeAib]L[NMedβ3hAla][NMeA]I[Sar])), the IC50 is > 0.5 µM.
Consider `CC[C@H](C)[C@@H]1NC(=O)[C@H](CC(C)C)N(C)C(=O)C[C@@H](C)N(C)C(=O)[C@H](CC(C)C)NC(=O)C(C)(C)N(C)C(=O)[C@H](CC(C)C)NC(=O)[C@H](CCc2ccc(C(F)(F)F)c(Cl)c2)NC(=O)CN(C)C(=O)[C@H](Cc2ccc(C(F)(F)F)cc2)N(C)C(=O)CN(C)C(=O)CN(C)C1=O` [Compound 1396] (cyclo(I[Sar][Sar][NMePhe(4-CF3)][Sar][hPhe(3-Cl-4-CF3)]L[NMeAib]L[NMedβ3hAla][NMeL])), for which the IC50 was > 0.5 µM.
Regarding `CC[C@H](C)[C@@H]1NC(=O)[C@H](CC(C)C)N(C)C(=O)C[C@@H](C)N(C)C(=O)[C@H](CC(C)C)NC(=O)C(C)(C)N(C)C(=O)[C@H](CC(C)C)NC(=O)[C@H](CCc2ccc(C(F)(F)F)c(Cl)c2)NC(=O)CN(C)C(=O)[C@H](Cc2ccc(C(F)(F)F)cc2)N(C)C(=O)[C@@H]2CCN2C(=O)CN(C)C1=O` [Compound 1403] (cyclo([Aze][NMePhe(4-CF3)][Sar][hPhe(3-Cl-4-CF3)]L[NMeAib]L[NMedβ3hAla][NMeL]I[Sar])), the IC50 is > 0.5 µM.
Consider `CCCC[C@@H]1NC(=O)[C@H](Cc2cccc(Br)c2)NC(=O)CN(C)C(=O)[C@H](Cc2ccc(Cl)cc2)N(C)C(=O)CN(C)C(=O)CN(C)C(=O)[C@H]([C@@H](C)CC)NC(=O)[C@H](CC(C)C)N(C)C(=O)C[C@@H](C(=O)N2CCCCC2)N(C)C(=O)[C@H](CC(C)C)NC(=O)C(C)(C)N(C)C1=O` [Compound 1404] ([NMeL]I[Sar][Sar][NMePhe(4-Cl)][Sar][Phe(3-Br)][Nle][NMeAib]L[NMeD]-Piperidide; lactam N-11), for which the IC50 was > 0.5 µM.
The same measure for `C=C(C)C[C@@H]1NC(=O)[C@H](Cc2cccc(I)c2)NC(=O)CN(C)C(=O)[C@H](Cc2ccc(Cl)cc2)N(C)C(=O)[C@@H]2CCN2C(=O)CN(C)C(=O)[C@H]([C@@H](C)CC)NC(=O)[C@H](CC(C)C)N(C)C(=O)C[C@@H](C(=O)N2CCCCC2)N(C)C(=O)[C@H](CC(C)C)NC(=O)C(C)(C)N(C)C1=O` [Compound 1414] ([NMeL]I[Sar][Aze][NMePhe(4-Cl)][Sar][Phe(3-I)][Leu(4,5-dehydro)][NMeAib]L[NMeD]-Piperidide; lactam N-11): > 0.5 µM.
As to `CCCC[C@@H]1NC(=O)[C@H](Cc2cccc(Br)c2)NC(=O)CN(C)C(=O)[C@H](Cc2ccc(Cl)cc2)N(C)C(=O)[C@@H]2CCN2C(=O)[C@H](C)N(C)C(=O)[C@H]([C@@H](C)CC)NC(=O)[C@H](CC(C)C)N(C)C(=O)C[C@@H](C(=O)N2CCCCC2)N(C)C(=O)[C@H](CC(C)C)NC(=O)C(C)(C)N(C)C1=O` [Compound 1415] ([NMeL]I[NMeA][Aze][NMePhe(4-Cl)][Sar][Phe(3-Br)][Nle][NMeAib]L[NMeD]-Piperidide; lactam N-11), the IC50 was > 0.5 µM.
Regarding `CCCCCC[C@H]1C(=O)N[C@@H]([C@@H](C)CC)C(=O)N(C)CC(=O)N2CC[C@H]2C(=O)N(C)[C@@H](Cc2ccc(OC)cc2)C(=O)N(C)CC(=O)N[C@@H](Cc2cccc(I)c2)C(=O)N[C@@H](CCCC)C(=O)N(C)C(C)(C)C(=O)N[C@@H](CC(C)C)C(=O)N(C)[C@H](C(=O)N2CCCCC2)CC(=O)N1C` [Compound 1417] ([NMeAoc(2)]I[Sar][Aze][NMeY](Me)[Sar][Phe(3-I)][Nle][NMeAib]L[NMeD]-Piperidide; lactam N-11), the IC50 is > 0.5 µM.
`CC[C@H](C)[C@@H]1NC(=O)[C@H](CC(C)C)N(C)C(=O)C[C@@H](C(=O)N2CCCCC2)N(C)C(=O)[C@H](CC(C)C)NC(=O)C(C)(C)N(C)C(=O)[C@H](CC=C(C)C)NC(=O)[C@H](Cc2cccc(I)c2)NC(=O)CN(C)C(=O)[C@H](Cc2ccc(Cl)cc2)N(C)C(=O)[C@@H]2CCN2C(=O)[C@H](C)N(C)C1=O` [Compound 1419] ([NMeL]I[NMeA][Aze][NMePhe(4-Cl)][Sar][Phe(3-I)][X26][NMeAib]L[NMeD]-Piperidide; lactam N-11): the IC50 was > 0.5 µM.

(Values after patent US20240148821A1, “PHARMACEUTICAL USE OF CYCLIC PEPTIDE COMPOUND” (CHUGAI SEIYAKU KABUSHIKI KAISHA, priority 2021, published 2024).)
